Measurements taken from patent US20240293423A1, “STAT DEGRADERS AND USES THEREOF” (Kymera Therapeutics, Inc., priority 2020, published 2024).

Molecular target: T1, STAT3 (Homo sapiens, UniProt P40763)
T1 construct: expressed in transfected cells; host or cells: A549
Experiment: STAT3 HiBiT degradation assay in transfected A549 cells
Type: cell-based
Conditions: 24 h compound incubation, Nano-Glo HiBiT lytic detection, read-out: Cell: STAT3 HiBit A549 degradation 24 h GMean External Abs-DC50
Procedure: Compound preparation and Cell seeding: The transfected A549 cells were harvested from dish into cell culture medium and cell numbers counted. Cells were diluted with culture medium to the desired density and 30 μL of cell suspension (about 2000 cells/well) were added into each well of a 384-well cell culture plate as designated and transferred into 37° C. 5% CO2 incubator for 24 h. Compounds were dissolved to 10 mM stock solution and 12 μL of the stock solution was transferred to a 384 LDV-plate. 3 fold, 10-point dilution was performed by transferring 4 μL compound into 8 μL DMSO using a TECAN (EVO200) liquid handler. 30 μL of diluted compound from compound source plate was transferred into the cell plate as designated by using Echo550 and transferred into 37° C. 5% CO2 incubator for 24 h.
Detection: Plates were removed from incubators and equilibrated at room temperature for 15 minutes. Nano-Glo Hibit Lytic Detection reagent (Promega Cat #N3040) was thawed and equilibrated to room temperature before the experiment. 30 μL of Nano-Glo Hibit Lytic Detection reagent was added into each well to be detected. The plates were held at room temperature for 10 min followed by reading on EnSpire.
Data analysis: The remaining activity was calculated following the formula: Remaining Activity (%)=100%×(Lumsample−LumNC)/(LumPC−LumNC). Calculate the IC50 by fitting the curve using Xlfit (v5.3.1.3), equation 201: fit=(A+((B−A)/(1+((x/C)^D)))); A: Botton; B: Top; C: IC50; and D: Slope.
The letter codes for STAT3 DC50 include: A (<0.05 μM), B (0.05-0.2 μM), C (0.2-1.0 μM), and D (>1.0 μM).

T1 sequence (P40763 whole entry): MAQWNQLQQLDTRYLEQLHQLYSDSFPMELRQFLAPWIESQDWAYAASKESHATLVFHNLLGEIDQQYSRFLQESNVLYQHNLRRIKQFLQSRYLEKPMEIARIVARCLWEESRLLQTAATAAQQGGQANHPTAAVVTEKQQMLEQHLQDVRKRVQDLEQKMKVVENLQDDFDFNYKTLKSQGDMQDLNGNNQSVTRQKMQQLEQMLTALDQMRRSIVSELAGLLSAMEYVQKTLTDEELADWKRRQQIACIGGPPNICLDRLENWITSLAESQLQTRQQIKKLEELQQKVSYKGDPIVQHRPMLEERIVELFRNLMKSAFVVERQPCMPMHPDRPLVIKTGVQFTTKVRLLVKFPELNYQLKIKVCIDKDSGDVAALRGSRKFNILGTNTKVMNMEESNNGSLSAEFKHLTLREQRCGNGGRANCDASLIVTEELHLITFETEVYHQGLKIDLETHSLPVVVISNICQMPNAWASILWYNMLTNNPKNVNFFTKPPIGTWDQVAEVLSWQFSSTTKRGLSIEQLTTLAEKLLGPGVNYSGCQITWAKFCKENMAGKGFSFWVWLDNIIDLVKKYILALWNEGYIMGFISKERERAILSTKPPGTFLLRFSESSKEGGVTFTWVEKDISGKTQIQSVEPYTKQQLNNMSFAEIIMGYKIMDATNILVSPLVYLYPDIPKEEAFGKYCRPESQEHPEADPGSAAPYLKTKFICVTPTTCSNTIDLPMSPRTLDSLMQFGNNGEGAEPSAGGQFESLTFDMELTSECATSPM

SMILES	DC50 [nM]
COC(=O)N1CC[C@H]2CC[C@@H](C(=O)N[C@@H](CCC(N)=O)C(=O)N[C@@H](Cc3ccc(F)c(F)c3)C(=O)N3CCC(CCC#Cc4ccc5c(c4)n(C)c(=O)n5C4CCC(=O)NC4=O)CC3)N2C(=O)[C@@H](NC(=O)c2cc3cc(C(F)(F)P(=O)(O)O)ccc3s2)C1 (stereo partly shown) [Compound I-1]	< 50
COC(=O)N1CC[C@H]2CC[C@@H](C(=O)N[C@@H](CCC(N)=O)C(=O)N[C@@H](Cc3ccc(F)c(F)c3)C(=O)N3CCC(CCCc4ccc5c(c4)n(C)c(=O)n5C4CCC(=O)NC4=O)CC3)N2C(=O)[C@@H](NC(=O)c2cc3cc(C(F)(F)P(=O)(O)O)ccc3s2)C1 (stereo partly drawn) [Compound I-2, (2-{[(5S,8S,10aR)-8-{[(1S)-3-carbamoyl-1-{[(2S)-3-(3,4-difluorophenyl)-1-(4-{3-[1-(2,6-dioxopiperidin-3-yl)-3-methyl-2-oxo-1,3-benzodiazol-5-yl]propyl}piperidin-1-yl)-1-oxopropan-2-yl]carbamoyl}propyl]carbamoyl}-3-(methoxycarbonyl)-6-oxo-octahydropyrrolo[1,2-a][1,5]diazocin-5-yl]carbamoyl}-1-benzothiophen-5-yl)difluoromethylphosphonic acid]	< 50
COC(=O)N1CC[C@H]2CC[C@@H](C(=O)N[C@@H](CCC(N)=O)C(=O)N[C@@H](Cc3ccc(F)c(F)c3)C(=O)N3CCC(CCCc4cccc5c4n(C)c(=O)n5C4CCC(=O)NC4=O)CC3)N2C(=O)[C@@H](NC(=O)c2cc3cc(C(F)(F)P(=O)(O)O)ccc3s2)C1 (stereo partly shown) [Compound I-3]	< 50
COC(=O)N1CC[C@H]2CC[C@@H](C(=O)N[C@@H](CCC(N)=O)C(=O)N[C@@H](Cc3ccc(F)c(F)c3)C(=O)N3CCC(CCC#Cc4ccc5c(c4)n(C)c(=O)n5C4CCC(=O)NC4=O)CC3)N2C(=O)[C@@H](NC(=O)c2cc3cc(C(=O)P(=O)(O)O)ccc3[nH]2)C1 (stereo partly shown) [Compound I-4]	200 to 1000
COC(=O)N1CC[C@H]2CC[C@@H](C(=O)N[C@@H](CCC(N)=O)C(=O)N[C@@H](Cc3ccc(F)c(F)c3)C(=O)N3CCC(CCCc4ccc5c(c4)n(C)c(=O)n5C4CCC(=O)NC4=O)CC3)N2C(=O)[C@@H](NC(=O)c2cc3cc(C(=O)P(=O)(O)O)ccc3[nH]2)C1 (stereo partly drawn) [Compound I-5, 2-[[(5S,8S,10aR)-8-[[(1S)-3-carbamoyl-1-[[(2S)-3-(3,4-difluorophenyl)-1-(4-[3-[1-(2,6-dioxopiperidin-3-yl)-3-methyl-2-oxo-1,3-benzodiazol-5-yl]propyl]piperidin-1-yl)-1-oxopropan-2-yl]carbamoyl]propyl]carbamoyl]-3-(methoxycarbonyl)-6-oxo-octahydropyrrolo[1,2-a][1,5]diazocin-5-yl]carbamoyl]-1H-indole-5-carbonylphosphonic acid]	50 to 200
COC(=O)N1CC[C@H]2CC[C@@H](C(=O)N[C@@H](CCC(N)=O)C(=O)N[C@@H](Cc3ccc(F)c(F)c3)C(=O)N3CCC(CCCc4cccc5c4n(C)c(=O)n5C4CCC(=O)NC4=O)CC3)N2C(=O)[C@@H](NC(=O)c2cc3cc(C(=O)P(=O)(O)O)ccc3[nH]2)C1 (stereo partly shown) [Compound I-6]	200 to 1000
CC(=O)N1CC[C@H]2CC[C@@H](C(=O)N[C@@H](CCC(N)=O)C(=O)N[C@@H](Cc3ccc(F)c(F)c3)C(=O)N3CCC(CCC#Cc4ccc5c(c4)n(C)c(=O)n5C4CCC(=O)NC4=O)CC3)N2C(=O)[C@@H](NC(=O)c2cc3cc(C(=O)P(=O)(O)O)ccc3[nH]2)C1 (stereo partly shown) [Compound I-7]	200 to 1000
CC(=O)N1CC[C@H]2CC[C@@H](C(=O)N[C@@H](CCC(N)=O)C(=O)N[C@@H](Cc3ccc(F)c(F)c3)C(=O)N3CCC(CCCc4ccc5c(c4)n(C)c(=O)n5C4CCC(=O)NC4=O)CC3)N2C(=O)[C@@H](NC(=O)c2cc3cc(C(=O)P(=O)(O)O)ccc3[nH]2)C1 (stereo partly shown) [Compound I-8]	> 1000
CC(=O)N1CC[C@H]2CC[C@@H](C(=O)N[C@@H](CCC(N)=O)C(=O)N[C@@H](Cc3ccc(F)c(F)c3)C(=O)N3CCC(CCCc4cccc5c4n(C)c(=O)n5C4CCC(=O)NC4=O)CC3)N2C(=O)[C@@H](NC(=O)c2cc3cc(C(=O)P(=O)(O)O)ccc3[nH]2)C1 (stereo partly shown) [Compound I-9]	200 to 1000
CC(=O)N1CC[C@H]2CC[C@@H](C(=O)N[C@@H](CCC(N)=O)C(=O)N[C@@H](Cc3ccc(F)c(F)c3)C(=O)N3CCC(CCC#Cc4ccc5c(c4)n(C)c(=O)n5C4CCC(=O)NC4=O)CC3)N2C(=O)[C@@H](NC(=O)c2cc3cc(C(F)(F)P(=O)(O)O)ccc3s2)C1 (stereo partly shown) [Compound I-10]	50 to 200
Cn1c(=O)n(C2CCC(=O)NC2=O)c2ccc(CCCC3CCN(C(=O)[C@H](Cc4ccc(F)c(F)c4)NC(=O)[C@H](CCC(N)=O)NC(=O)[C@@H]4CC[C@@H]5CCCC[C@H](NC(=O)c6cc7cc(C(F)(F)P(=O)(O)O)ccc7s6)C(=O)N54)CC3)cc21 (stereo partly shown) [Compound I-11]	50 to 200
Cn1c(=O)n(C2CCC(=O)NC2=O)c2ccc(CCCC3CCN(C(=O)[C@H](Cc4ccc(F)c(F)c4)NC(=O)[C@H](CCC(N)=O)NC(=O)[C@@H]4CC[C@@H]5CCCC[C@H](NC(=O)c6cc7cc(C(=O)P(=O)(O)O)ccc7[nH]6)C(=O)N54)CC3)cc21 (stereo partly shown) [Compound I-12]	200 to 1000
Cn1c(=O)n(C2CCC(=O)NC2=O)c2cccc(CCCC3CCN(C(=O)[C@H](Cc4ccc(F)c(F)c4)NC(=O)[C@H](CCC(N)=O)NC(=O)N4Cc5cccc6c5C4C(=O)[C@@H](NC(=O)c4cc5cc(C(=O)P(=O)(O)O)ccc5[nH]4)CC6)CC3)c21 (stereo partly shown) [Compound I-13]	200 to 1000
Cn1c(=O)n(C2CCC(=O)NC2=O)c2cccc(CCCC3CCN(C(=O)[C@H](Cc4ccc(F)c(F)c4)NC(=O)[C@H](CCC(N)=O)NC(=O)N4Cc5cccc6c5C4C(=O)[C@@H](NC(=O)c4cc5cc(C(F)(F)P(=O)(O)O)ccc5s4)CC6)CC3)c21 (stereo partly shown) [Compound I-14]	> 1000
COC(=O)N1CC[C@H]2CC[C@@H](C(=O)N[C@@H](CCC(N)=O)C(=O)N[C@H](C(=O)N3CCC(CCCc4ccc5c(c4)n(C)c(=O)n5C4CCC(=O)NC4=O)CC3)C3CCCCC3)N2C(=O)[C@@H](NC(=O)c2cc3cc(C(F)(F)P(=O)(O)O)ccc3s2)C1 (stereo partly shown) [Compound I-15]	200 to 1000
COC(=O)N1CC[C@H]2CC[C@@H](C(=O)N[C@@H](CCC(N)=O)C(=O)N[C@H](C(=O)N3CCC(CCC#Cc4cccc5c4n(C)c(=O)n5C4CCC(=O)NC4=O)CC3)C3CCCCC3)N2C(=O)[C@@H](NC(=O)c2cc3cc(C(F)(F)P(=O)(O)O)ccc3s2)C1 (stereo partly shown) [Compound I-16]	200 to 1000
COC(=O)N1CC[C@H]2CC[C@@H](C(=O)N[C@@H](CCC(N)=O)C(=O)N[C@H](C(=O)N3CCC(CCCCc4cccc5c4n(C)c(=O)n5C4CCC(=O)NC4=O)CC3)C3CCCCC3)N2C(=O)[C@@H](NC(=O)c2cc3cc(C(F)(F)P(=O)(O)O)ccc3s2)C1 (stereo partly shown) [Compound I-17]	200 to 1000
COC(=O)N1CC[C@H]2CC[C@@H](C(=O)N[C@@H](CCC(N)=O)C(=O)N[C@H](C(=O)N3CCC(CCCc4ccc5c(c4)n(C)c(=O)n5C4CCC(=O)NC4=O)CC3)C3CCCCC3)N2C(=O)[C@@H](NC(=O)c2cc3cc(C(=O)P(=O)(O)O)ccc3[nH]2)C1 (stereo partly shown) [Compound I-18]	200 to 1000
COC(=O)N1CC[C@H]2CC[C@@H](C(=O)N[C@@H](CCC(N)=O)C(=O)N[C@H](C(=O)N3CCC(CCC#Cc4cccc5c4n(C)c(=O)n5C4CCC(=O)NC4=O)CC3)C3CCCCC3)N2C(=O)[C@@H](NC(=O)c2cc3cc(C(=O)P(=O)(O)O)ccc3[nH]2)C1 (stereo partly shown) [Compound I-19]	200 to 1000
COC(=O)N1CC[C@H]2CC[C@@H](C(=O)N[C@@H](CCC(N)=O)C(=O)N[C@H](C(=O)N3CCC(CCCCc4cccc5c4n(C)c(=O)n5C4CCC(=O)NC4=O)CC3)C3CCCCC3)N2C(=O)[C@@H](NC(=O)c2cc3cc(C(=O)P(=O)(O)O)ccc3[nH]2)C1 (stereo partly shown) [Compound I-20]	200 to 1000
CC(=O)N1CC[C@H]2CC[C@@H](C(=O)N[C@@H](CCC(N)=O)C(=O)N[C@H](C(=O)N3CCC(CCCCc4cccc5c4n(C)c(=O)n5C4CCC(=O)NC4=O)CC3)C3CCCCC3)N2C(=O)[C@@H](NC(=O)c2cc3cc(C(=O)P(=O)(O)O)ccc3[nH]2)C1 (stereo partly shown) [Compound I-27]	> 1000
CC(=O)N1CC[C@H]2CC[C@@H](C(=O)N[C@@H](CCC(N)=O)C(=O)N[C@H](C(=O)N3CCC(CCC#Cc4cccc5c4n(C)c(=O)n5C4CCC(=O)NC4=O)CC3)C3CCCCC3)N2C(=O)[C@@H](NC(=O)c2cc3cc(C(=O)P(=O)(O)O)ccc3[nH]2)C1 (stereo partly shown) [Compound I-29]	> 1000
CC(=O)N1CC[C@H]2CC[C@@H](C(=O)N[C@@H](CCC(N)=O)C(=O)N[C@H](C(=O)N3CCC(CCCc4ccc5c(c4)n(C)c(=O)n5C4CCC(=O)NC4=O)CC3)C3CCCCC3)N2C(=O)[C@@H](NC(=O)c2cc3cc(C(=O)P(=O)(O)O)ccc3s2)C1 (stereo partly shown) [Compound I-30]	> 1000
CC(=O)N1CC[C@H]2CC[C@@H](C(=O)N[C@@H](CCC(N)=O)C(=O)N[C@H](C(=O)N3CCC(CCC#Cc4cccc5c4n(C)c(=O)n5C4CCC(=O)NC4=O)CC3)C3CCCCC3)N2C(=O)[C@@H](NC(=O)c2cc3cc(C(=O)P(=O)(O)O)ccc3s2)C1 (stereo partly shown) [Compound I-31]	50 to 200
CC(=O)N1CC[C@H]2CC[C@@H](C(=O)N[C@@H](CCC(N)=O)C(=O)N[C@H](C(=O)N3CCC(CCCCc4cccc5c4n(C)c(=O)n5C4CCC(=O)NC4=O)CC3)C3CCCCC3)N2C(=O)[C@@H](NC(=O)c2cc3cc(C(=O)P(=O)(O)O)ccc3s2)C1 (stereo partly shown) [Compound I-32]	200 to 1000
